Laboratory results as given in ChEMBL document CHEMBL5226278, “Pharmacological approaches for targeting cystic fibrosis nonsense mutations” (2020).

Experiment: Restoration of CFTR chloride channel activity in human HBE cells expressing wild type CFTR assessed as increase in channel function
Format: functional

C[C@H](N)[C@H]1O[C@@H](O[C@@H]2[C@@H](O)[C@H](N)C[C@H](N)[C@H]2O[C@H]2O[C@H]([C@@H](C)O)[C@@H](O)[C@H](O)[C@H]2N)[C@H](O)[C@@H]1O
Activity: 7%
